The source of these data is patent US20230416314A1, “MODIFIED HIGH MOLECULAR WEIGHT GLUTENIN SUBUNIT AND USES THEREOF” (Ukko Inc., priority 2020, published 2023).

Read-outs that look alike come from different tables or passages of the source. Residues, ends and D or L forms follow the SMILES beside them. No end group written: not given here. Bounds are passed on as bounds.

The target of experiment [1] is HLA-DQ2.2 (Homo sapiens, UniProt P01909+P01920, A45G/A70V/C70K/D167G/D89A/E106A/E183D/E77G/E98D/F237L/F77L/G63E/H199R/I129T/K197E/L107V/L178F/L74F/N214S/P84L/P87L/Q57E/Q76R/R75H/S185I/S97I/T103K/T109R/T172A/T60S/V73L/V78E/V99I/Y48F/Y58L/Y62S/Y69I/Y79F). Description: MHC II/peptide competition binding assay, HLA-DQ2.2. Here is the method:
(§1) One skilled in the art would appreciate that the 15-mers used included shorter de-epitoped high molecular weight glutenin peptide sequences (mutated repeating antigenic units), as described throughout. For example, Table 2 provides a listing of 15-mers and the shorter mutated repeating antigenic units present therein. […] MHC II molecules were purified by affinity chromatography, and peptides were radiolabeled using the chloramine T method. After an incubation period, the bound and unbound radiolabeled species were separated, and their relative amounts were determined by either size-exclusion gel-filtration chromatography or monoclonal antibody capture of MHC. The percent of bound radioactivity was then determined.

The target of experiment [2] is HLA-DQ8 (Homo sapiens, UniProt P01909+P01920, A209T/A45G/C70Q/D89A/DUP78-78/E183D/E77G/F237L/G63E/H199R/I129T/K197E/L178F/L74F/L98V/Q57E/Q76R/S185I/S97I/T217I/T49S/V73L/Y58L). Description: MHC II/peptide competition binding assay, HLA-DQ8. The procedure: as §1
For experiment [3], the target named is HLA-DQ2.5 (Homo sapiens, UniProt P01909+P01920, A45G/A70V/D89A/E106A/E77G/E98D/H199R/L107V/N214S/P84L/P87L/T103K/T109R/T172A/T60S/V78E/V99I/Y58L/Y62S/Y69I/Y79F). In words: MHC II/peptide competition binding assay, HLA-DQ2.5. The procedure:
as §1

In experiment [4] the target is HLA-DQ7.5 (Homo sapiens, UniProt P01909+P01920). Description: MHC II/peptide competition binding assay, HLA-DQ7.5. Here is the method:
The peptides were synthesized as purified material on the 2 mg scale with free acid C-termini (A&A labs, USA). One skilled in the art would appreciate that the 15-mers used included shorter de-epitoped high molecular weight glutenin peptide sequences (mutated repeating antigenic units), as described throughout. For example, Table 2 provides a listing of 15-mers and the shorter mutated repeating antigenic units present therein.
Briefly, competition assays using different concentrations of wild-type (WT) and modified glutenin peptides were conducted by diluting the peptides in NP40 buffer, and incubation for 2-4 days with purified MHC II and a radiolabeled known MHC binding peptide (peptide probe). MHC II molecules were purified by affinity chromatography, and peptides were radiolabeled using the chloramine T method. After an incubation period, the bound and unbound radiolabeled species were separated, and their relative amounts were determined by either size-exclusion gel-filtration chromatography or monoclonal antibody capture of MHC. The percent of bound radioactivity was then determined.

In experiment [5] the target is HLA-DQ7.5. Description: MHC II competition binding assay (purified MHC II, radiolabeled probe peptide as competitor).
Experiment [6] has as its target HLA-DQ2.2. The experiment is described as above.
Experiment [7] deals with HLA-DQ2.5. The experiment is described as above.
Experiment [8] addresses HLA-DQ8. The description is as above.
Setting [9] is: Table 3, 15-mer peptides, >40000 signifies binding is undetectable by assay.

Take `C[C@@H](O)[C@H](NC(=O)[C@@H]1CCCN1C(=O)[C@H](CC(=O)O)NC(=O)[C@H](CC(N)=O)NC(=O)CNC(=O)[C@H](CCC(=O)O)NC(=O)[C@H](CCC(N)=O)NC(=O)CNC(=O)[C@@H](N)CCC(N)=O)C(=O)NCC(=O)N1CCC[C@H]1C(=O)N[C@@H](CCC(=O)O)C(=O)N[C@@H](CCC(N)=O)C(=O)N[C@@H](CO)C(=O)NCC(=O)O` [P1g] (H-QGQEGNDPTGPEQSG-OH): the IC50 on HLA-DQ2.2 [1] (setting [9]), on HLA-DQ8 [2] (setting [9]), on HLA-DQ2.5 [3] (setting [9]) and at HLA-DQ7.5 [4] (setting [9]) was more than 40 µM in each case.

Take `C[C@@H](O)[C@H](NC(=O)[C@H](CO)NC(=O)[C@@H](NC(=O)[C@@H]1CCCN1C(=O)[C@H](Cc1ccc(O)cc1)NC(=O)[C@H](Cc1c[nH]cn1)NC(=O)[C@H](Cc1c[nH]c2ccccc12)NC(=O)[C@H](CCC(=O)O)NC(=O)[C@H](CCC(N)=O)NC(=O)CNC(=O)[C@@H](N)CCC(N)=O)[C@@H](C)O)C(=O)N[C@@H](CCC(=O)O)C(=O)N[C@@H](CCC(N)=O)C(=O)N[C@@H](CO)C(=O)NCC(=O)O` [P1h] (H-QGQEWHYPTSTEQSG-OH): the IC50 (commonly the concentration at which inhibition is half-maximal) at HLA-DQ2.2 [1] (setting [9]) was 5.72 µM; at HLA-DQ8 [2] (setting [9]), more than 40 µM; on HLA-DQ2.5 [3] (setting [9]) it was more than 40 µM; at HLA-DQ7.5 [4] (setting [9]), more than 40 µM.

With `CC(C)C[C@H](NC(=O)CNC(=O)[C@H](CCCNC(=N)N)NC(=O)CNC(=O)[C@H](CCC(=O)O)NC(=O)[C@H](CCC(N)=O)NC(=O)CNC(=O)[C@@H](N)CCC(N)=O)C(=O)N[C@H](C(=O)N[C@@H](CO)C(=O)N1CCC[C@H]1C(=O)N[C@@H](Cc1c[nH]cn1)C(=O)N[C@@H](CCC(N)=O)C(=O)N[C@@H](CO)C(=O)NCC(=O)O)[C@@H](C)O` [SEQ ID NO: 144] (H-QGQEGRGLTSPHQSG-OH), the IC50 was more than 40 µM on HLA-DQ2.2 [1], more than 40 µM at HLA-DQ8 [2], more than 40 µM on HLA-DQ2.5 [3] and 39.3 µM on HLA-DQ7.5 [4].

`C[C@@H](O)[C@H](NC(=O)[C@@H]1CCCN1C(=O)[C@H](Cc1ccc(O)cc1)NC(=O)[C@H](CCCNC(=N)N)NC(=O)CNC(=O)[C@H](CCC(=O)O)NC(=O)[C@H](CCC(N)=O)NC(=O)CNC(=O)[C@@H](N)CCC(N)=O)C(=O)N[C@@H](CO)C(=O)N1CCC[C@H]1C(=O)N[C@@H](CCCCN)C(=O)N[C@@H](CCC(N)=O)C(=O)N[C@@H](CO)C(=O)NCC(=O)O` [SEQ ID NO: 146] (H-QGQEGRYPTSPKQSG-OH): the IC50 on HLA-DQ2.2 [1], at HLA-DQ8 [2], on HLA-DQ2.5 [3] and at HLA-DQ7.5 [4] was more than 40 µM each time.

In the case of `CC(C)C[C@H](NC(=O)[C@H](CO)NC(=O)[C@@H](NC(=O)[C@@H]1CCCN1C(=O)[C@H](Cc1ccc(O)cc1)NC(=O)[C@H](Cc1ccc(O)cc1)NC(=O)CNC(=O)[C@@H]1CCCN1C(=O)[C@H](CCC(N)=O)NC(=O)CNC(=O)[C@@H](N)CCC(N)=O)[C@@H](C)O)C(=O)N[C@H](C(=O)N[C@@H](CCC(N)=O)C(=O)N[C@@H](CO)C(=O)NCC(=O)O)[C@@H](C)O` [SEQ ID NO: 147] (H-QGQPGYYPTSLTQSG-OH), the IC50 at HLA-DQ2.2 [1], at HLA-DQ8 [2], on HLA-DQ2.5 [3] and on HLA-DQ7.5 [4] was more than 40 µM in each case.

On to `CC(C)C[C@H](NC(=O)[C@H](CC(=O)O)NC(=O)[C@H](CCCNC(=N)N)NC(=O)CNC(=O)[C@H](CCC(=O)O)NC(=O)[C@H](CCC(N)=O)NC(=O)CNC(=O)[C@@H](N)CCC(N)=O)C(=O)N[C@H](C(=O)N[C@@H](CO)C(=O)N1CCC[C@H]1C(=O)N[C@@H](CCCCN)C(=O)N[C@@H](CCC(N)=O)C(=O)N[C@@H](CO)C(=O)NCC(=O)O)[C@@H](C)O` [SEQ ID NO: 169] (H-QGQEGRDLTSPKQSG-OH), for which the half-inhibitory concentration (IC50) on HLA-DQ2.2 [1], at HLA-DQ8 [2], on HLA-DQ2.5 [3] and at HLA-DQ7.5 [4] was more than 40 µM in each case.

As to `C[C@H](NC(=O)[C@@H]1CCCN1C(=O)CNC(=O)[C@H](Cc1c[nH]cn1)NC(=O)CNC(=O)[C@H](CCC(=O)O)NC(=O)[C@H](CCC(N)=O)NC(=O)CNC(=O)[C@@H](N)CCC(N)=O)C(=O)N[C@@H](CO)C(=O)N1CCC[C@H]1C(=O)N[C@@H](CCCCN)C(=O)N[C@@H](CCC(N)=O)C(=O)N[C@@H](CO)C(=O)NCC(=O)O` [SEQ ID NO: 174] (H-QGQEGHGPASPKQSG-OH), the IC50 is more than 40 µM at HLA-DQ2.2 [1], more than 40 µM on HLA-DQ8 [2], more than 40 µM at HLA-DQ2.5 [3] and 16.4 µM on HLA-DQ7.5 [4].

B1: modified 15-mer peptide … (SEQ ID NO: 144) (peptide)
peptide: QGQEGRGLTSPHQSG-OH
B1 yielded an IC50 in the experiment with HLA-DQ7.5 [5] of 39.3 µM.

B2: P1h, modified 15-mer peptide … (SEQ ID NO: 56) (peptide)
peptide: QGQEWHYPTSTEQSG-OH
In turn, B2 registered an IC50 with HLA-DQ2.2 [6] of 5.72 µM.

B3: modified 15-mer peptide … (SEQ ID NO: 174) (peptide)
peptide: QGQEGHGPASPKQSG-OH
In the experiment with HLA-DQ7.5 [5], B3 displayed an IC50 of 16.4 µM.

B4: P1e, modified 15-mer peptide … (SEQ ID NO: 53) (peptide)
peptide: QGQPRYYPTSPRQSG-OH
B4: the IC50 in the experiment with HLA-DQ2.5 [7] came to 33.2 µM; with HLA-DQ8 [8], 32.5 µM; in the experiment with HLA-DQ7.5 [5], 19.4 µM.

B5: modified 15-mer peptide … (SEQ ID NO: 176) (peptide)
peptide: QGQEPYGPSSPEQSG-OH
As for B5, the IC50 with HLA-DQ7.5 [5] was 28.6 µM.

B6: P1a, native HMW glutenin 15-mer peptide … (SEQ ID NO: 49) (peptide)
peptide: QGQQGYYPTSPQQSG-OH
Turning to B6, the IC50 was 29.8 µM in the experiment with HLA-DQ2.5 [7] and 14.2 µM with HLA-DQ8 [8].

B7: P1b, deamidated HMW glutenin 15-mer peptide … (SEQ ID NO: 50) (peptide)
peptide: QGQEGYYPTSPEQSG-OH
As for B7, the IC50 in the experiment with HLA-DQ2.5 [7] amounted to 3.29 µM; in the experiment with HLA-DQ8 [8], 3.75 µM.

B8: P1c, modified 15-mer peptide … (SEQ ID NO: 51) (peptide)
peptide: QGAAGYYPTSPRQSG-OH
B8 yielded an IC50 with HLA-DQ7.5 [5] of 19.9 µM.
